Target: T1, MASP-2 (Homo sapiens, UniProt O00187)
T1 construct: applying test samples, e.g., diluted plasma or serum samples; from tissue; host or cells: plasma or serum
Experiment: TRIFMA for MASP-2 activity of the MBL/MASP complex (C4 activation on mannan-coated wells)
Format: biochemical
Protocol: MASP-2 may be estimated by its capacity to activate the complement system. When C4 is cleaved by MASP-2 an active thiol ester is exposed and C4 becomes covalently attached to nearby nucleophilic groups. A substantial part of the C4b will thus become attached to the coated plastic well and may be detected by anti-C4 antibody. A quantitative TRIFMA for MASP-2 activity was constructed by 1) coating microtitre wells with 1 μg mannan in 100 μl buffer; 2) blocking with Tween-20; 3) applying test samples, e.g., diluted plasma or serum samples; 4) applying purified complement factor C4 at 5 μg/ml; 5) incubate for one hour at 37° C.; 6) applying Eu-labelled anti-C4 antibody; 7) applying enhancement solution; and 8) reading the Eu by time resolved fluorometry. (Estimation by ELISA may be carried out similarly, e.g. by applying biotin-labelled anti-C4 in step 6; 7) apply alkaline phosphatase-labelled avidin; 8) apply substrate; and 9) read the colour intensity). Between each step the plate was incubated at room temperature and washed, except between step 7 and 8. A calibration curve can be constructed using dilutions of one selected normal plasma, arbitrarily said to contain 1 unit of MBL/MASP-2 activity per ml. The assay is carried out at conditions which preclude activation of C4 by the classical or alternative complement activation pathways.

T1 sequence (O00187 445-686 limits assumed): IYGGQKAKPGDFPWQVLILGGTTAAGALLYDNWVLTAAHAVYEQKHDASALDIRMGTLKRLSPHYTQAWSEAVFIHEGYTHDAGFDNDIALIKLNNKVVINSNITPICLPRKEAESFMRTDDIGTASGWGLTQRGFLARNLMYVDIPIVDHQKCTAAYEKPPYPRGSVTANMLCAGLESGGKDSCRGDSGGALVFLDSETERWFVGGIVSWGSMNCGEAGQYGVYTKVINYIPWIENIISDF
T1 sequence (O00187 16-444 partner limits assumed): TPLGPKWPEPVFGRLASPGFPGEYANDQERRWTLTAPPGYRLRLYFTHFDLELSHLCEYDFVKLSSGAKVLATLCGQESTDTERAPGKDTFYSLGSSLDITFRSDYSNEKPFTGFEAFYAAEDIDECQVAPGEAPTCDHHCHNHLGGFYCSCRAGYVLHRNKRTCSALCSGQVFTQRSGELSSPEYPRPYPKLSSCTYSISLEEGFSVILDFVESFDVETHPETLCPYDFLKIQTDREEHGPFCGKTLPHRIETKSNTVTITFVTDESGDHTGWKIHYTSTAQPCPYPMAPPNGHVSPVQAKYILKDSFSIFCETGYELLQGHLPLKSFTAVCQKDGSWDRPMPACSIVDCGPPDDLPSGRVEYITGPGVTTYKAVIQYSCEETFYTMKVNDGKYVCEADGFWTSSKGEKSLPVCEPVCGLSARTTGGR
T1 sequence (P11226 21-248 partner): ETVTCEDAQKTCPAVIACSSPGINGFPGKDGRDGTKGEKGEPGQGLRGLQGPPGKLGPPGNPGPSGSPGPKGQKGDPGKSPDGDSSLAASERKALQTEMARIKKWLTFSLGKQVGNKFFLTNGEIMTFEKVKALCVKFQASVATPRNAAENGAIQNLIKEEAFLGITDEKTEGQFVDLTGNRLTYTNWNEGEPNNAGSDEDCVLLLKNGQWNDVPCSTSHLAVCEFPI

Row | Compound | effectiveness as enzyme inhibitor in the TRIFMA for MASP-2 activity | activation of C4 (purified C4 at 5 μg/ml, one hour at 37° C.)
1 | O=S(=O)(F)Cc1ccccc1 [PMSF] | proved effective | –
2 | Cl.NCCc1ccc(S(=O)(=O)F)cc1 [Pefabloc] | inhibitors of MASP-2 activity | –
3 | N=C(N)c1ccccc1 [benzamidine] | proved effective | completely inhibited

— patent US9441262B2, “MASP-2, a complement fixing enzyme, and uses for it” (Helion Biotech ApS, priority 1997, dated 2016)
